Results as given in BindingDB's records for doi:10.1111/j.1747-0285.2009.00924.x (Nankai University, 2010).
pKi: −log10 of the molar value.

Target: T1, Ketol-acid reductoisomerase (NADP(+)) (Escherichia coli (strain K12), UniProt P05793)
T1 sequence (P05793 whole entry): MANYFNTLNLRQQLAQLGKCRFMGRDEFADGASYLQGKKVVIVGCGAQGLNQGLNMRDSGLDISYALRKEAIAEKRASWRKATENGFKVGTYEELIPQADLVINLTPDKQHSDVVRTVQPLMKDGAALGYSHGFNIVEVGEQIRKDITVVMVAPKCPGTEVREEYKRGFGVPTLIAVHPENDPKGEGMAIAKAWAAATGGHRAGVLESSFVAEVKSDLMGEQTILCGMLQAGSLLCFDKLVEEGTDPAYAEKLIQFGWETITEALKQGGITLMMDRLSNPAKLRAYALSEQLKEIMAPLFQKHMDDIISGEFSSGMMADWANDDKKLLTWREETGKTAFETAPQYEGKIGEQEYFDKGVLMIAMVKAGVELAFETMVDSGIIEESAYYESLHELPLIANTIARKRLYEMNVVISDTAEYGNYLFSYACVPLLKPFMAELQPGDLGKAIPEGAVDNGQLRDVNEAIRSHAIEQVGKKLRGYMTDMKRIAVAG
Assay: Enzyme Inhibition Assay
Settings: pH 8; 30 °C
Method: Inhibition of E. coli KARI (ketol-acid reductoisomerase) is time dependent, and activity was measured by the decrease in A340 at 30 C in solutions containing 0.2 mM […], 1 mM MgCl2, substrate 2-acetolactate and inhibitor in 0.1 M phosphate buffer at pH 8.0.

Row | Compound | pKi
1 | O=C(O)C1(C(=O)O)CC1 [Cyclopropane, 3] | 4.12
2 | N#CC1(C(=O)O)CC1 [Cyclopropane, 4] | 4.02
3 | NC(=O)C1(C(=O)O)CC1 [Cyclopropane, 5] | 4.51
4 | CC(C)N(O)C(=O)C(=O)O [N-hydroxy-N-isopropyloxamate, IpOHA] | 5.56
